The target in the test is Cannabinoid receptor 2 (Homo sapiens, UniProt P34972). Nature of the test: Competition Binding Assay. As for the experimental part: To determine the affinity of CB2R-specific ligands, we used a simple competition kinetic binding assay. This approach involves the simultaneous addition of both fluorescent ligand and competitor to the CB2R preparation. 62.5 nM 8-SiR, concentration which avoid ligand depletion in this assay volume, were added simultaneously with increasing concentrations of the unlabeled compound to CB2R cell membranes (4 μg per well) in 40 μL of assay buffer in a 384-well plate incubated at room temperature with orbital mixing. The degree of fluorescent ligand bound to the receptor was assessed at equilibrium by HTRF detection. Nonspecific binding was determined as the amount of HTRF signal detected in the presence of SR144528 (1 μM) and was subtracted from total binding, to calculate specific binding for construction of IC50 curves.

In BindingDB's records for patent US20250325711 (Hoffmann-La Roche, 2025) one finds Kd data, which are given here for seven compounds.

Cannabinoid receptor 2, sequence (P34972 whole entry): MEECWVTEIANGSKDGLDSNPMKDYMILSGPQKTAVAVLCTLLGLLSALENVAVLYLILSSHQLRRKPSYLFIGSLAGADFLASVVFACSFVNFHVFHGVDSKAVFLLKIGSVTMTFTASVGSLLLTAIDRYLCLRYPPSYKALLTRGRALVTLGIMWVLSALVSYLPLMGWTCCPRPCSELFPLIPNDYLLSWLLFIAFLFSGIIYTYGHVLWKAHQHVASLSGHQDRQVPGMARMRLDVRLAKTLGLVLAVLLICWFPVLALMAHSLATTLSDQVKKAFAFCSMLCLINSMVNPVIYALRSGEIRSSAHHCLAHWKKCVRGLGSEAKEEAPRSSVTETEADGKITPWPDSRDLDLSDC

Take `CCN(CC)c1ccc2c(c1)OC(=O)C(/C=C/c1ccc(S(=O)(=O)[O-])c[n+]1CCCCCC(=O)NCCOCCN1CC(CNC(=O)C3=CC(S(=O)(=O)N4CC(C(=O)NCCCCCCC(=O)NCC5=C[C@H](c6c(OC)cc(C(C)(C)CCCCCCN=[N+]=[N-])cc6OC)[C@@H]6C[C@H]5C6(C)C)C=CC4=O)CC=C3)N=N1)C2` (some centres not stated) [US20250325711, Example 5]: binding was characterised by a dissociation constant (Kd) of 59 nM. As for `COc1cc(C(C)(C)CCCCCCN=[N+]=[N-])cc(OC)c1[C@H]1C=C(CNC(=O)CCCCNC(=O)c2ccc(=O)n(S(=O)(=O)c3cccc(C(=O)NCCC4CN(CCOCCNc5ccc([N+](=O)[O-])c6nonc56)N=N4)c3)c2)[C@H]2C[C@@H]1C2(C)C` (some centres not stated) [US20250325711, Example 1], the affinity, expressed as Kd, was 9.1 nM. This Kd is about 6.5-fold lower than that of the compound before. As for `COc1cc(C(C)(C)CCCCCCN=[N+]=[N-])cc(OC)c1[C@H]1C=C(CNC(=O)CCCCCCNC(=O)c2ccc(=O)n(S(=O)(=O)c3cccc(C(=O)NCC4CN(CCOCCNc5ccc([N+](=O)[O-])c6nonc56)N=N4)c3)c2)[C@H]2C[C@@H]1C2(C)C` (some centres not stated) [US20250325711, Example 2], the Kd (usually the concentration at which binding is half-saturated) amounted to 22.9 nM. With `COc1cc(C(C)(C)CCCCCCN=[N+]=[N-])cc(OC)c1[C@H]1C=C(CNC(=O)CCCCCCNC(=O)c2ccc(=O)n(S(=O)(=O)c3cccc(C(=O)NCC4CN(CCOCCOCCOCCOCCNc5ccc([N+](=O)[O-])c6nonc56)N=N4)c3)c2)[C@H]2C[C@@H]1C2(C)C` (some centres not stated) [US20250325711, Example 4], binding was put at a Kd of 4.5 nM. This Kd lies about 5.1-fold lower than the previous one. As for `CCCCCCC(C)(C)c1cc(OC)c([C@H]2C=C(CNC(=O)CCCCCCNC(=O)c3ccc(=O)n(S(=O)(=O)c4cccc(C(=O)NCC5CN(CCOCCNc6ccc([N+](=O)[O-])c7nonc67)N=N5)c4)c3)[C@H]3C[C@@H]2C3(C)C)c(OC)c1` (some centres not stated) [US20250325711, Example 3], the affinity, expressed as Kd, was 24.2 nM. Consider `COc1cc(C(C)(C)CCCCCCN=[N+]=[N-])cc(OC)c1[C@H]1C=C(CNC(=O)CCCCCCNC(=O)c2ccc(S(=O)(=O)N(CC#N)C(=O)CCC3CN(CCOCCNc4ccc([N+](=O)[O-])c5nonc45)N=N3)cc2)[C@H]2C[C@@H]1C2(C)C` (some centres not stated) [US20250325711, Example 11], for which the Kd amounted to 152 nM. For `COc1cc(C(C)(C)CCCCCCN=[N+]=[N-])cc(OC)c1[C@H]1C=C(CNC(=O)CCCCCCCCNC(=O)c2ccc(=O)n(S(=O)(=O)c3cccc(C(=O)NCC4CN(CCOCCNc5ccc([N+](=O)[O-])c6nonc56)N=N4)c3)c2)[C@H]2C[C@@H]1C2(C)C` (some centres not stated) [US20250325711, Example 7], binding was characterised by a dissociation constant (Kd) of 8.9 nM.
